Reference: BigSolDB 2.1

O=C1NC(=O)C2C3C=CC(C3)C12 (stereo not drawn)
solubility (mole fraction)
Conditions	278.15 K	283.15 K	288.15 K	293.15 K	298.15 K	303.15 K	308.15 K	313.15 K	318.15 K	323.15 K
in 1,4-dioxane	–	–	0.0363	0.0402	0.0495	0.0576	0.0649	0.0738	0.0843	0.0962
in 2-ethoxyethanol	0.019	0.0224	0.0255	0.0295	0.0336	0.0384	0.0442	0.0481	0.0551	0.0627
in DMF	0.0637	0.0717	0.081	0.0915	0.107	0.116	0.129	0.145	0.159	0.177
in acetone	0.0128	0.0146	0.0171	0.0196	0.0225	0.0255	0.029	0.0328	0.0369	0.0414
in ethanol	0.00441	0.00512	0.00642	0.00789	0.00949	0.0115	0.0138	0.0165	0.0195	0.0233
in ethyl acetate	0.00821	0.00971	0.0112	0.0128	0.0146	0.0171	0.0195	0.0223	0.0255	0.029
in isopropyl acetate	0.0046	0.00565	0.00672	0.00781	0.00903	0.0105	0.0124	0.0143	0.0164	0.019
in methanol	0.00626	0.00766	0.00855	0.0104	0.0127	0.0157	0.0182	0.0219	0.026	0.0308
in methyl acetate	0.0113	0.0135	0.0159	0.0187	0.0223	0.0259	0.0303	0.0352	0.041	0.0474
in n-butyl acetate	0.00431	0.00523	0.00617	0.00718	0.00869	0.0103	0.0117	0.0135	0.0156	0.0178
in n-propyl acetate	0.00537	0.00631	0.00782	0.00907	0.0106	0.0124	0.0145	0.0168	0.0193	0.0221
